From patent US11883435B2, “Compositions and methods for treating a clinical condition through the use of hematopoietic stem cells” (Indiana University Research and Technology Corporation, priority 2017, dated 2024)

Key:
mouse bone marrow HSCs = test: Number of mouse bone marrow HSCs collected and processed with antioxidants or epigenetic inhibitors (flow cytometry); type: cell-based; conditions: collected in ambient air
mouse bone marrow HSC = conditions: ambient air (about 21% O2); cited from earlier work
human cord blood HSC = conditions: ambient air (about 21% O2); cited from earlier work

Molecule: O=C1O[C@H]([C@@H](O)CO)C(O)=C1OP(=O)(O)O [AAP, ascorbic acid 2-phosphate]
- increase in numbers of HSC (mouse bone marrow HSCs; AAP alone (0.22 mM)): not AAP alone, significantly increased

Molecule: CC(=O)N[C@@H](CS)C(=O)O [NAC, N-Acetyl-Cysteine]
- change in numbers of collected HSCs (mouse bone marrow HSCs; 1 mM NAC): no significant change
- increase in numbers of collected HSCs (mouse bone marrow HSCs; higher dose of NAC (3 mM)): no increase

Molecule: cyclosporine A
- numbers of HSC (mouse bone marrow HSC): increased numbers of HSC
- numbers of HSC (human cord blood HSC): increased numbers of HSC
